The results in this text go back to PMC6199744, “Development of Chemical Proteomics for the Folateome and Analysis of the Kinetoplastid Folateome” (ACS Infectious Diseases, 2018).

Read-outs that look alike come from different tables or passages of the source.

What all share (format): binding
Test [1] deals with T1, HeLa cell extract proteins (Homo sapiens, UniProt P08238).
T1 construct: endogenous in cells; host or cells: HeLa cell extract

In test [2] the target is T2, HeLa cell extract proteins (Homo sapiens, UniProt P11021).
T2 construct: endogenous in cells; host or cells: HeLa cell extract

The target in test [3] is T3, HeLa cell extract proteins (Homo sapiens, UniProt P14324).
T3 construct: endogenous in cells; host or cells: HeLa cell extract
T3 sequence (P14324 1-419): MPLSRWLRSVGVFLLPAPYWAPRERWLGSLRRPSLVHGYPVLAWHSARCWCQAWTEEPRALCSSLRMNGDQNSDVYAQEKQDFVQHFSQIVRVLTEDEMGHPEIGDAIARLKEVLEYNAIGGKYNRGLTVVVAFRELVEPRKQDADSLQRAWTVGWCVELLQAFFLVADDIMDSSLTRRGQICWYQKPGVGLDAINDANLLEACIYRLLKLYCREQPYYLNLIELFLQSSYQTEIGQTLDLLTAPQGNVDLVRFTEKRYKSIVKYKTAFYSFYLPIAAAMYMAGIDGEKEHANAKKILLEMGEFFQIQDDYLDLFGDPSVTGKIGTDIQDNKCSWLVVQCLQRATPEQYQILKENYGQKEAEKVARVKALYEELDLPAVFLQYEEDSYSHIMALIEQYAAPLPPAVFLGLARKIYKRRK

The target in test [4] is T4, HeLa cell extract proteins (Homo sapiens, UniProt P47897).
T4 construct: endogenous in cells; host or cells: HeLa cell extract
T4 sequence (P47897 1-775): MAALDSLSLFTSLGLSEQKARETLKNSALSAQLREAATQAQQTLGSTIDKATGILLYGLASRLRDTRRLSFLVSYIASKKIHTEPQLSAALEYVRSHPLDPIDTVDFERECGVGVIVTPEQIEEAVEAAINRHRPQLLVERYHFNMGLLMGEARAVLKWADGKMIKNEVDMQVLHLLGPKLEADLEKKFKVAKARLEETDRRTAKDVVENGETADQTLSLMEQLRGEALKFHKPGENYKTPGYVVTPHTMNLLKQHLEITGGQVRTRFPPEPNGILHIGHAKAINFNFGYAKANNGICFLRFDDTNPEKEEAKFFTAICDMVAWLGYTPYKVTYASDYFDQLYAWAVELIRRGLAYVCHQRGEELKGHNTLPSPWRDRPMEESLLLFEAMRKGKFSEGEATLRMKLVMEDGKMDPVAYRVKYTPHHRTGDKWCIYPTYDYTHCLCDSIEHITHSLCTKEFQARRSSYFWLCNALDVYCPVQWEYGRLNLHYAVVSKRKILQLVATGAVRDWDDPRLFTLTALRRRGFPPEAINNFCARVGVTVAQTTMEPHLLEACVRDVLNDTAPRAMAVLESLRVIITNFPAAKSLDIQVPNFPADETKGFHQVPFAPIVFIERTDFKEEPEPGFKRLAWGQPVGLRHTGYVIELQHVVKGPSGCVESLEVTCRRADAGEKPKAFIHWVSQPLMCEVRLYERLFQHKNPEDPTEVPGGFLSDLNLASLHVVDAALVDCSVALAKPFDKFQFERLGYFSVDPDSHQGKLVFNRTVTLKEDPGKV

The target in test [5] is T5, HeLa cell extract proteins (Homo sapiens, UniProt Q14764).
T5 construct: endogenous in cells; host or cells: HeLa cell extract

For test [6], the target named is T6, HeLa cell extract proteins (Homo sapiens, UniProt Q99720).
T6 construct: endogenous in cells; host or cells: HeLa cell extract

In test [7] the target is T7, HeLa cell extract proteins (Homo sapiens, UniProt Q9HBU6).
T7 construct: endogenous in cells; host or cells: HeLa cell extract
T7 sequence (Q9HBU6 1-452): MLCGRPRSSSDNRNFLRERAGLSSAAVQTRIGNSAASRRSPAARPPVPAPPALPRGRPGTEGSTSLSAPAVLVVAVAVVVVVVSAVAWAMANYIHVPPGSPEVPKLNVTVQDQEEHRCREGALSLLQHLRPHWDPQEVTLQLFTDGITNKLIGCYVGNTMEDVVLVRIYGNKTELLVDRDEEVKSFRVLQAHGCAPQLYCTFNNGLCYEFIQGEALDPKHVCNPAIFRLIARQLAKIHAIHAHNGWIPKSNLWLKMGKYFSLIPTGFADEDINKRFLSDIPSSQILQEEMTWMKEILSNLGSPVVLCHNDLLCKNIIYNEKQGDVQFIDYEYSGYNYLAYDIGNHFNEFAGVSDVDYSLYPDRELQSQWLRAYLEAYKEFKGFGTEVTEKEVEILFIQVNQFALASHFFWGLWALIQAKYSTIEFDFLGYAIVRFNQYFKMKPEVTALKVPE

The target of test [8] is T8, HeLa cell extract proteins (Homo sapiens, UniProt Q9Y262).
T8 construct: endogenous in cells; host or cells: HeLa cell extract

The mark [9] stands for this setting: HeLa, protein HSP90AB1 (HEAT SHOCK PROTEIN HSP 90-BETA.).

T1 sequence (P08238 whole entry): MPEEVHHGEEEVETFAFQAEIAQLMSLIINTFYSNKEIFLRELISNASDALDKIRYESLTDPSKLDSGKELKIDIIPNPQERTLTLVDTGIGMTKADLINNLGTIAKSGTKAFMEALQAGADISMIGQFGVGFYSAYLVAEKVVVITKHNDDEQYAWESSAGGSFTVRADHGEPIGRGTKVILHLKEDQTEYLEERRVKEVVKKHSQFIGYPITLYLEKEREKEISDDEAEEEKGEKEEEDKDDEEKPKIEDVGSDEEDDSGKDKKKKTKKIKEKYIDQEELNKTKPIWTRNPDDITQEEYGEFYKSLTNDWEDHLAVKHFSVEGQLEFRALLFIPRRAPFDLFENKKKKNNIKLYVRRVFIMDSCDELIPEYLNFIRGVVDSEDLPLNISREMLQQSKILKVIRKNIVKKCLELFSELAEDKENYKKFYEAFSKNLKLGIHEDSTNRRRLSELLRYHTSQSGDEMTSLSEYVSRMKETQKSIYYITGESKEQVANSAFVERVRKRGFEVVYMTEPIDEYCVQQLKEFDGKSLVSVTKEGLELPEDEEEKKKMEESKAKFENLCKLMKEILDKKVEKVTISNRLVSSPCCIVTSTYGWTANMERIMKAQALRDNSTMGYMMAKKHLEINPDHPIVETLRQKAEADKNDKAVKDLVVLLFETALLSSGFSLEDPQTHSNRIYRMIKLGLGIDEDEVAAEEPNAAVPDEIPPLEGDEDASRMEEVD
T8 sequence (Q9Y262 whole entry): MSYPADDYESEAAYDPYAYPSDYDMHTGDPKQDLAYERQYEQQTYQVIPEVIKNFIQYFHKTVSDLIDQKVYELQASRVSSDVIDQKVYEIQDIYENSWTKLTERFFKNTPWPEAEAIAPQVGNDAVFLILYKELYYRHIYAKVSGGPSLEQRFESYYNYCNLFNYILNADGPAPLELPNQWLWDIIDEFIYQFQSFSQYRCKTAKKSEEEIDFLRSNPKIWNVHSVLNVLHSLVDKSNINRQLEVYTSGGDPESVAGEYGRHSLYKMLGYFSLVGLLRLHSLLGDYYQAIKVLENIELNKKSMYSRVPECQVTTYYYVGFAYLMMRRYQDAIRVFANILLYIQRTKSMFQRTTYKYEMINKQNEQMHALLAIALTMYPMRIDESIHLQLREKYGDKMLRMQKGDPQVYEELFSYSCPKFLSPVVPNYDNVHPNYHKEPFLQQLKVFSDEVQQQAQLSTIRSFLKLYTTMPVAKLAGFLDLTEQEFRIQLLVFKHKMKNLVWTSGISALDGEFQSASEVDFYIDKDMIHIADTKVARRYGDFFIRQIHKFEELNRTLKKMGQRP
T6 sequence (Q99720 whole entry): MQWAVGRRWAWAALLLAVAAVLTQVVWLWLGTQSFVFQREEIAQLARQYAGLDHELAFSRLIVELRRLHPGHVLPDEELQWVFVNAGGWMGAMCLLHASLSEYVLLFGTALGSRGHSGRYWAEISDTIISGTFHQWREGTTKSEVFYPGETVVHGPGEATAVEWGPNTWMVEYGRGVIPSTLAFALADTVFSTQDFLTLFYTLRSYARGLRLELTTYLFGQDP
T5 sequence (Q14764 whole entry): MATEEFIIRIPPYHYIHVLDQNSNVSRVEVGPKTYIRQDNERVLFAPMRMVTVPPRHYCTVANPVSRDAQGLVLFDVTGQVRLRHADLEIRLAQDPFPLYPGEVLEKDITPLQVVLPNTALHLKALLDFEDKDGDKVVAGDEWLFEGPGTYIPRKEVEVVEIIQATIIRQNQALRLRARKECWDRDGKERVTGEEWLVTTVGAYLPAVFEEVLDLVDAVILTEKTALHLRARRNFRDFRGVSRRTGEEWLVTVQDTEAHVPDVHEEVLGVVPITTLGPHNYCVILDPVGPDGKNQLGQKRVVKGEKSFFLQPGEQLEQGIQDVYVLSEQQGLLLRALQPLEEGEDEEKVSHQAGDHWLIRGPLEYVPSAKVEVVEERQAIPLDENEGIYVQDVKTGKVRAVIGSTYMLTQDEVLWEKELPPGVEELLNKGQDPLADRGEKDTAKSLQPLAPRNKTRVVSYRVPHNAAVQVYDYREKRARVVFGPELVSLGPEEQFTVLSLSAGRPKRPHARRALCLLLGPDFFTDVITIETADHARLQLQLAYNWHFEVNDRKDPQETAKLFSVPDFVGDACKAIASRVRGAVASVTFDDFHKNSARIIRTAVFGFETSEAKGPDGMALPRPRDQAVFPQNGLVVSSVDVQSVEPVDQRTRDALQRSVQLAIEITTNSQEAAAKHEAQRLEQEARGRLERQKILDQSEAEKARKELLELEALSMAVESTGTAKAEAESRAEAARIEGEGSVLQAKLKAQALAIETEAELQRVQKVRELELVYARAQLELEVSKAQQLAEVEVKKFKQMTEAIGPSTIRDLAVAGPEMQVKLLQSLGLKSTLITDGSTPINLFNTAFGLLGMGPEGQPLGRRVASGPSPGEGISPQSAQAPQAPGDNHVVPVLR
T2 sequence (P11021 19-654): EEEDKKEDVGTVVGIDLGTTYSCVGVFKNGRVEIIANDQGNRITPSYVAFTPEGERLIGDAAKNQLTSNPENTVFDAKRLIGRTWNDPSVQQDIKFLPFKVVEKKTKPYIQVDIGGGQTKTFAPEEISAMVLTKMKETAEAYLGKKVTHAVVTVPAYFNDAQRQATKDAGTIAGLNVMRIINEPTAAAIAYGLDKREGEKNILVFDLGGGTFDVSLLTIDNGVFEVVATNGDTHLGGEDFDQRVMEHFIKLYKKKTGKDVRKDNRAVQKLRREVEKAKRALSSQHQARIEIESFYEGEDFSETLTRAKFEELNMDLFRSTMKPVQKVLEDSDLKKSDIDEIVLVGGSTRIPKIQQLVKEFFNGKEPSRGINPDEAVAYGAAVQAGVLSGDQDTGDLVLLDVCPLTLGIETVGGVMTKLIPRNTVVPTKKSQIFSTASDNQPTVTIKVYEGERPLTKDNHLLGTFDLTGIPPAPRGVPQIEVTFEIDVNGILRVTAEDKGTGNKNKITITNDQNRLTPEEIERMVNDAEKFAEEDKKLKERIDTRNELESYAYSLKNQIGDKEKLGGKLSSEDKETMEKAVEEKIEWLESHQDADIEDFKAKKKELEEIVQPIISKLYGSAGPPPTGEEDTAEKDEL

`Nc1nc2c(c(=O)[nH]1)N(C=O)C(CNc1ccc(C(=O)N[C@@H](CCC(=O)O)C(=O)O)cc1)CN2` (some centres unmarked) [LEU, leucovorin]: the “fold changes relative to vehicle control” value in test [1] (HeLa, protein HSP90AB1) was 1.08; in test [2] (HeLa, captured protein HSPA5) it was 1.06; in test [3] (HeLa, captured protein FDPS) it was 1.05; in test [4] (HeLa, captured protein QARS) it was 0.97; in test [5] (HeLa, protein MVP), 0.99; in test [6] (HeLa, protein SIGMAR1), 1.04. The “fold changes relative to vehicle control” value is 0.99 in test [7] (protein ETNK1, HeLa) and 1 in test [8] (HeLa, captured protein EIF3L).

In the case of `Nc1nc2[nH]cc(CCc3ccc(C(=O)N[C@@H](CCC(=O)O)C(=O)O)cc3)c2c(=O)[nH]1` [PTX, pemetrexed], the “fold changes relative to vehicle control” value in test [1] came to 1.14; in test [2], 1.03; in test [3], 1.08; in test [4] it was 0.9; in test [5], 0.98; in test [6], 0.99. In addition, the “fold changes relative to vehicle control” value in test [7] and in test [8] was 0.91 in each case.

In the case of `CCCCCCOc1ccc(Cc2cnc(N)nc2N)cc1` [compound 1], the “fold changes relative to vehicle control” value is on record as 1.5 fold in test [1] (setting [9]); 0.96 in test [2] (protein HSPA5, HeLa); 1.17 in test [3] (protein FDPS, HeLa); 0.99 in test [4] (HeLa, protein QARS); 1.06 in test [5] (HeLa, protein MVP); 0.99 in test [6] (HeLa, protein SIGMAR1). Moreover, the “fold changes relative to vehicle control” value in test [7] (HeLa, protein ETNK1) stood at 0.94; in test [8] (protein EIF3L, HeLa) it was 1.05.

Take `CCCCCCOc1cccc(Cc2cnc(N)nc2N)c1` [compound 2]: the “fold changes relative to vehicle control” value in test [1] (setting [9]) stood at 2.33 fold; in test [2] (protein HSPA5, HeLa), 1.12; in test [3] (protein FDPS, HeLa), 2.08; in test [4] (HeLa, protein QARS) it was 1.16; in test [5] (HeLa, protein MVP) it was 1.23; in test [6] (HeLa, protein SIGMAR1), 0.99. Moreover, the “fold changes relative to vehicle control” value in test [7] (HeLa, protein ETNK1) is reported as 0.99; in test [8] (protein EIF3L, HeLa) it was 1.25.

`Nc1nc2cccc(-c3ccccc3)c2n1Cc1ccc(Cl)c(Cl)c1` [compound 3]: the “fold changes relative to vehicle control” value is 1.06 fold in test [1] (setting [9]); 0.99 in test [2] (protein HSPA5, HeLa); 0.87 in test [3] (protein FDPS, HeLa); 1.01 in test [4] (HeLa, protein QARS); 1.02 in test [5] (HeLa, protein MVP); 1.1 in test [6] (HeLa, protein SIGMAR1). The “fold changes relative to vehicle control” value is recorded as 1.53 in test [7] (HeLa, protein ETNK1) and 1.09 in test [8] (protein EIF3L, HeLa).

Turning to `NCCOCCOCC(=O)Nc1nc2ncc(CNc3ccc(C(=O)NC(CCC(=O)O)C(=O)O)cc3)nc2c(=O)[nH]1` (centres unmarked) [compound 6], the “fold changes relative to vehicle control” value in test [1] (HeLa, protein HSP90AB1) is given as 1.36; in test [2] (HeLa, captured protein HSPA5), 1; in test [3] (HeLa, captured protein FDPS) it was 1.29; in test [4] (HeLa, captured protein QARS), 0.95; in test [5] (HeLa, protein MVP), 0.96; in test [6] (HeLa, protein SIGMAR1) it was 0.96. In addition, the “fold changes relative to vehicle control” value in test [7] (protein ETNK1, HeLa) turned out to be 0.96; in test [8] (HeLa, captured protein EIF3L), 1.07.

As for `NCCCNc1ccc(C(=O)NC(CCC(=O)O)C(=O)O)cc1` (centres unmarked) [compound 7], the “fold changes relative to vehicle control” value is listed as 0.98 in test [1] (HeLa, protein HSP90AB1); 1 in test [2] (HeLa, captured protein HSPA5); 0.97 in test [3] (HeLa, captured protein FDPS); 0.92 in test [4] (HeLa, captured protein QARS); 1.28 in test [5] (HeLa, protein MVP); 1.05 in test [6] (HeLa, protein SIGMAR1). Further, the “fold changes relative to vehicle control” value is reported as 1.01 in test [7] (protein ETNK1, HeLa) and 0.93 in test [8] (HeLa, captured protein EIF3L).
